Source: US8367801B2, “Proteinaceous compounds” (Endocrine Pharmaceuticals Limited, priority 2008, dated 2013)
Ends that are not written are not given here.

Assays:
[1] = system: human dental pulp cells; test: Dental pulp cell proliferation (Cyquant); assay type: cell-based; details: for anti-proliferative activity: 5 μM in the cell medium, seeding 5.0×10^3 cells/ml
[2] = system: human umbilical vascular endothelial cells (HUVECs); test: AngioKit angiogenesis assay, venule length; assay type: cell-based; details: FIG. 6; suramin 20 μM; micrin sample T2
Procedure: Micrin and micrin free control samples were produced using the method described in Example 7.a with 120 ml sheep follicular fluid as the source material. These were diluted in AngioKit medium and stored at 4° C. for the duration of the assay. Samples were tested as follows: • 1) untreated control—medium alone • 2) positive control—medium containing 2 ng/ml VEGF • 3) negative control—medium containing 20 μM suramin (a potent inhibitor of angiogenesis) • 4) micrin-free control • 5) micrin test material
Comparison of venule length was conducted using the ‘Angiosys’ image analysis system developed specifically for the analysis of images produced using the AngioKit. Four images were taken from predetermined positions in the well containing each specimen. The results obtained with micrin are marked T2, those with micrin-free control T1.

[3] = system: human bone marrow stem cells; test: Human bone marrow stem cell proliferation in vitro; assay type: cell-based; details: 1 μM in the medium, 24 h
Procedure: (§1) Micrin activity has been determined by means of a suitable in vitro assay, for example the breast cancer cell viability assay described above in Section 4 with reference to FIG. 4. A useful assay in support of molecular optimisation involves adult rat bone marrow stem cells in culture, with α-MEMS as cell medium and manual assessments of cell numbers and morphology using time-lapse video photography over 24 h. In one study, untreated control cells increased in number by 50%. An increase of just under 20% was also seen with the 14 mer peptide SEQ ID NO: 9, administered at 10 μg/ml of medium.
To investigate the stop growing aspect of the hypothesized micrin puberty signal, the proline-containing 6 mers have been administered to human bone marrow stem cells in an in vitro assay (see 6a), at a concentration in the medium of 1 μM.

[4] = system: Caenorhabditis elegans; assay type: in vivo; details: for effect on lifespan / increase in fecundity (number of offspring): 1 μM in aqueous medium each day; for increase in fecundity (number of offspring): over lifespan
Description: (For methodology see Davies, K. G & Hart, J. E, Nematology, 10, 103-112, 2008).
The first six amino acids of the micrin peptide fragment of SEQ ID NO: 9 are MKPLTG (SEQ ID NO: 26). These have been synthesized as a 6 mer. […] Thus the fecundity-enhancing effect is retained even if 8 of the 14 amino acids are removed, potentially identifying an active motif. To optimise this 6 mer further, amino acid substitutions have been made, while retaining the proline at position 3.

[5] = system: PC3 prostate cancer cells; test: Tumour cell viability, Alamar Blue; assay type: cell-based; details: 48 hours; mean n = 3, SEMs < 5%; camptothecin at 3 μmol
Procedure: (§2) The effects of micrin on viability of tumour cells were determined using MCF7 breast cancer cells and PC3 prostate cancer cells. Cells were plated out to provide 2×10^4 cells in 2 cm^2 wells in Dulbecco's modified Eagles medium (DMEM) containing 10% foetal calf serum (FCS), antibiotics and a stabilised substitute for glutamine (Glutamax, Invitrogen UK). The cells were allowed to attach overnight. The medium was removed and the cells were washed several times with fresh medium, and then treated with test or control samples diluted in medium.
(§3) Test and control samples were produced according to an ion exchange method using 120 ml sheep ovarian follicular fluid as the starting material. Follicular fluid obtained by aspiration of abattoir-derived sheep ovaries was centrifuged at +4° C. and 2000 g for 10 minutes, then spun through Amicon Centriprep-30 cartridges at 1800 g to give a nominal 0-30 kD fraction. This fraction was spun through Amicon Centriprep-3 cartridges to give a nominal 3-30 kD sub-fraction. […]
(§4) Camptothecin, an inducer of apoptosis, was used as a positive control at 3 μmol. After 48 hours the medium was changed for fresh medium and the number of remaining viable cells was quantitated using Alamar Blue. The number of viable cells in the micrin and camptothecin samples were expressed as a percentage of the number of viable cells in the micrin-free control samples. […]

[6] = system: MCF7 breast cancer cells; test: Tumour cell viability, Alamar Blue; assay type: cell-based, human; details: 48 hours; mean n = 3, SEMs < 5%; camptothecin at 3 μmol
Procedure: as §2, §3, §4

[7] = system: adult rat bone marrow stem cells; test: Adult rat bone marrow stem cells in culture, cell numbers by time-lapse video over 24 h; assay type: cell-based
Procedure: Polyclonal antibodies were raised in the same manner using goats instead of rabbits, with Peptide 2 conjugated to KLH. The primary immunisation was followed by 8 boosters at monthly intervals, using standard techniques for the raising of polyclonal antibodies. Titre was established via immunohistochemistry, using rat and ovine median eminence tissue and the ability to block antibody with Peptide 1 was determined on histological sections. Specificity was tested using a range of hypothalamic peptides. […] 9, which consists of KVKEFNNI (SEQ ID NO. 21). Purification of the antibody using the peptide SEQ ID NO: 9 immobilised on a column enriches for antibody to the C-terminal epitope. The goat antibody has been used in connection with an assay based on adult rat bone marrow stem cells in culture, with α-MEMS as cell medium and manual assessments of cell numbers and morphology using time-lapse video photography over 24 h.
as §1

[8] = system: MCF 7 human breast cancer cells; test: IGF1-stimulated cell growth, Coulter counter; assay type: cell-based; details: IGF1 50 ng/ml, 72 hours
Procedure: Experiments were conducted to assess the effects of a range of doses of the micrin peptide fragment with 20 amino acids (SEQ ID NO: 19) on the IGF1-stimulated growth of MCF 7 human breast cancer cells. Cells were plated at 2×10^4 per well in 2 cm^2 wells in Dulbecco's Modified Eagle's Medium containing 10% foetal calf serum, antibiotics and a stabilised substitute for glutamine (Glutamax, InVitrogen, UK). After an overnight culture period, the cells were washed with fresh medium and this was replaced with medium containing IGF1 (50 ng/ml) in the presence and absence of a range of concentrations (between 0.04 and 4000 nmol) of the peptide fragment in triplicate wells, and compared to triplicate wells containing medium only (with no supplementary IGF1) as controls. The cells were incubated for 72 hours in a humidified atmosphere at 37° C. under 5% carbon dioxide/95% air. The medium was discarded, and the cell layer washed with buffered saline before being incubated with trypsin/EDTA to dislodge the cells. The cell suspension was diluted with medium to stop the tryptic action and then transferred to tubes and subjected to centrifugation. The pellet was resuspended in Isoton and samples counted with a Coulter counter.

[9] = system: compensatory renal growth; details: procedures as in 7c; Haylor et al 2009; cited from earlier work
[10] = system: ovine pituitary cells; test: Prolactin production by pituitary cells in vitro, RIA; assay type: cell-based
Procedure: Adult ewe pituitaries were collected into phosphate buffered saline (PBS) on ice. The external dura and neurohypophyseal tissue were removed and the remaining tissue was sliced thinly using tweezers and scalpel, and minced using crossed scalpel blades (<1 mm pieces). The mince was washed in 0.1% bovine serum albumen (BSA)/PBS. The tissue was allowed to settle and the liquid aspirated. The washing, settling and aspiration were repeated.
A standard cell dispersion was conducted by adding the tissue to a filtered solution of collagenase in BSA/PBS (0.02-0.03 g in 10 ml) plus Dnase, hyaluronidase, pancreatin and trypsin inhibitor and incubating in a shaking waterbath at 37° C. for 25 minutes. The resultant suspension was titurated with a pipette and returned to the shaking waterbath for 5 minutes. The suspension was titurated again and filtered through a mesh, washing with BSA/PBS. The suspension was added to a 50 ml centrifuge tube and spun at 1500 rpm for 5 minutes. The supernatant was removed and the cell pellet resuspended in 50 ml BSA/PBS.
A sample of the cell suspension (50 μl) was mixed 1:1 with trypan blue in a microcentrifuge tube and viable cells were counted on a haemocytometer, to give viable cell concentration.
The cell suspension was recentrifuged and resuspended in 3-5 ml of M199. […]

[11] = system: ovine pituitary cells; test: LH secretion by pituitary cells in vitro; assay type: cell-based; details: 24 h, 0.1-10 μg/L, dose dependent, vs scrambled peptide, data not shown
Procedure: Both effects are dependent on dose across the range used, 0.1-10 μg/L, and are statistically significant. Comparison was with a control peptide having the same amino acids in a randomly scrambled sequence (data not shown)

[12] = system: Caenorhabditis elegans; details: Davies & Hart, Nematology 2008; cited from earlier work

With KVKEFNNI the anti-proliferative activity [1] was “most anti-proliferative of all” and the “reduction of cell numbers” value ([1]; 5 μM, over 7 days) was “about 17%”.
With “1KPLTGKVKEFNNI [SEQ ID NO:1, 14 mer wherein 1 is S, D or M]” the anti-proliferative activity [1] was “more so”.
In the case of `Cc1ccc(C(=O)Nc2ccc(S(=O)(=O)O)c3cc(S(=O)(=O)O)cc(S(=O)(=O)O)c23)cc1NC(=O)c1cccc(NC(=O)Nc2cccc(C(=O)Nc3cc(C(=O)Nc4ccc(S(=O)(=O)O)c5cc(S(=O)(=O)O)cc(S(=O)(=O)O)c45)ccc3C)c2)c1` [Suramin, suramin], the HUVEC venule length [2] is reported as “statistically significant decrease in HUVEC venule length”.
For LEPVMT, the “ascending order of anti-proliferative activity” value (shortened to “ascending order”) [3] was “IEPVFT (SEQ ID NO: 30)<MKPLTG (SEQ ID NO. 26)<LEPVMT (SEQ ID NO: 31)<LQPAHV (SEQ ID NO: 27)”.
For MKPLTG, the anti-proliferative activity [1] was “minimally anti-proliferative”, the “ascending order” value [3] was “IEPVFT (SEQ ID NO: 30)<MKPLTG (SEQ ID NO. 26)<LEPVMT (SEQ ID NO: 31)<LQPAHV (SEQ ID NO: 27)” and the effect on lifespan [4] was “without altering lifespan”. The “increase in fecundity (number of offspring)” value (shortened to “increase in fecundity”) [4] was 50%.
For “fluorescently tagged version of the micrin peptide fragment: fluorescently tagged version of the micrin peptide fragment SEQ ID NO: 9 (MKPLTGKVKEFNNI; also: fluorescent tag, position not given here)”, the tissue accumulation ([4]; in vivo) was “accumulate preferentially in genital tissue”.
For LQPAHV, the “ascending order” value [3] was “IEPVFT (SEQ ID NO: 30)<MKPLTG (SEQ ID NO. 26)<LEPVMT (SEQ ID NO: 31)<LQPAHV (SEQ ID NO: 27)”, the “reduction of cell numbers” value [3] was “about 32%” and the effect on lifespan [4] was “significantly to prolong lifespan”. For the same molecule, the “increase in fecundity” value [4] was 71%.
With `CC[C@@]1(O)C(=O)OCc2c1cc1n(c2=O)Cc2cc3ccccc3nc2-1` [Camptothecin] the “Viability (% micrin-free control) PC3 (prostate cancer)” value [5] was 43.9 % micrin-free control and the “Viability (% micrin-free control) MCF-7 (breast cancer)” value [6] was 56.2 % micrin-free control.
With IEPVFT the “ascending order” value [3] was “IEPVFT (SEQ ID NO: 30)<MKPLTG (SEQ ID NO. 26)<LEPVMT (SEQ ID NO: 31)<LQPAHV (SEQ ID NO: 27)”, the effect on lifespan [4] was “without having a significant effect on lifespan” and the “increase in fecundity” value [4] was 79%.
In the case of MKPLTGKVKEFNNIKGFGVI [SEQ ID NO: 19], the “reduction in cell numbers” value ([7]; 24 h, due to apoptosis) is reported as “about 80%”, the “cell count compared to IGF1 alone” value ([8]; 0.04 nmol peptide) is reported as “noticably decreases the cell count” and the “cell count compared to controls” value ([8]; 40 nmol peptide) is reported as “reduces the cell count to below that in the controls”. For the same molecule, the “effect on IGF1-stimulated cell growth” value ([8]; 0.04-4000 nmol, FIG. 7) was “suppresses the effect of IGF1 in a dose-dependent manner”.
In the case of MKPLTGKVKEFNNI [SEQ ID NO: 9], the “effect on compensatory renal growth” value [9] is listed as “inhibits compensatory renal growth”, the “increase in cell number” value ([7]; 10 μg/ml of medium, 24 h, untreated control cells increased by 50%) is listed as “under 20%” and the “effect of co-administration on the antibody's reduction of the negative influence” value ([7]; with goat antibody and rat hypothalamus extract) is listed as “reversed by co-administration”. The effect on lifespan [4] was “increased by about a fifth”, the “increase in fecundity” value [4] was > 40% and the “prolactin level in medium” value ([10]; Experiment 1: 1 ng/well, 24 hours, n=4, control 92.2±13.9) was 67.1 ± 12.6 ng/mL. For the same molecule, the “prolactin level in medium” value ([10]; Experiment 2: 1 μg/ml, 2 hours, control 8.30±1.16, p<0.05) was 5.18 ± 1.52 ng/mL, the LH production ([11]; cells provided with GnRH, GHRH and TRH) was “reduction in LH production” and the LH secretion ([11]; hypothalamic regulators omitted) was “increase the secretion of LH”.
In the case of “KLKMNGKN (SEQ ID NO: 29) to the N-terminus of IEPVFT: IEPVFT with KLKMNGKN added to its N-terminus (KLKMNGKNIEPVFT)”, the effect on fecundity [12] is listed as “anti-fecundity agent”.
